Where a SMILES comes first, the peptide text is derived from it. [ ]: non-standard residue; d: D form. NMeF = CN[C@@H](Cc1ccccc1)C(=O)O; dNMeF = CN[C@H](Cc1ccccc1)C(=O)O; NMeL = CN[C@@H](CC(C)C)C(=O)O; dNMeL = CN[C@H](CC(C)C)C(=O)O; NMeNle = CCCC[C@H](NC)C(=O)O; NMeM = CN[C@@H](CCSC)C(=O)O; NMeA = CN[C@@H](C)C(=O)O; Nle = CCCC[C@H](N)C(=O)O; dNMeA = CN[C@H](C)C(=O)O; Sar = CNCC(=O)O
Conditions: for PAMPA_Papp_Avg / PAMPA_R1 / PAMPA_R3: PAMPA; for permeability in transwell assays: Caco-2

Compound | PAMPA_Papp_Avg | PAMPA_R1 | PAMPA_R3 | permeability in transwell assays
CC[C@H](C)[C@@H]1NC(=O)[C@H](C)NC(=O)[C@H](CC(C)C)NC(=O)[C@@H]2CCCN2C(=O)[C@@H](C(C)C)NC(=O)[C@H](CC(C)C)NC(=O)[C@@H]2CCCN2C(=O)[C@H]2CCCN2C(=O)[C@H](C)NC(=O)[C@H](Cc2ccccc2)NC(=O)[C@@H](CC(C)C)NC(=O)[C@H]2CCCN2C1=O [Design D12.8, PHE ALA DPRO PRO LEU DVAL PRO LEU ALA ILE DPRO DLEU] (cyclo(L[dV]PLAI[dP][dL]FA[dP]P)) | BQL | BQL | BQL | 
CC[C@@H](C)[C@H]1NC(=O)[C@@H]2CCCN2C(=O)[C@H]2CCCN2C(=O)[C@@H](CC(C)C)NC(=O)[C@@H](C)N(C)C(=O)[C@H]2CCCN2C(=O)[C@H]2CCCN2C(=O)[C@H](C(C)C)NC1=O [Design D8.24, DPRO PRO DILE VAL DPRO DPRO *DALA DLEU] (cyclo([dI]V[dP][dP][dNMeA][dL][dP]P)) | BQL | BQL | BQL | 
CC(C)C[C@H]1NC(=O)[C@H]2CCCN2C(=O)[C@@H]2CCCN2C(=O)[C@@H](Cc2ccccc2)NC(=O)[C@@H](C(C)C)NC(=O)[C@H](CC(C)C)N(C)C(=O)[C@@H](Cc2ccccc2)NC1=O (single isomer, unassigned) [Design D7.7.p2, PRO DPRO DLEU DPHE *LEU DVAL DPHE] | 9.06e-06 cm/s | 7.93e-06 cm/s | 1.17e-05 cm/s | 
CC(C)C[C@@H]1NC(=O)[C@H](CC(C)C)N(C)C(=O)[C@@H](Cc2ccccc2)N(C)C(=O)[C@H](Cc2ccccc2)NC(=O)[C@@H]2CCCN2C(=O)[C@@H](C)NC(=O)[C@@H]2CCCN2C(=O)[C@H](CC(C)C)N(C)C(=O)[C@H](CC(C)C)N(C)C(=O)[C@@H](C(C)C)NC1=O [Design D10.13, *LEU LEU DVAL *LEU *LEU PRO DALA PRO PHE *DPHE] (cyclo(F[dNMeF][NMeL]L[dV][NMeL][NMeL]P[dA]P)) | BQL | BQL | BQL | 
CC(C)C[C@@H]1NC(=O)[C@@H](CC(C)C)N(C)C(=O)[C@@H]2CCCN2C(=O)[C@H](CC(C)C)N(C)C(=O)[C@@H](C)NC(=O)[C@@H](CC(C)C)N(C)C(=O)[C@@H]2CCCN2C(=O)[C@@H](CC(C)C)N(C)C(=O)[C@H](CC(C)C)N(C)C(=O)[C@H](Cc2ccccc2)NC1=O [Design D10.21, *LEU *DLEU PRO *DLEU DALA *LEU PRO *DLEU LEU PHE] (cyclo(F[NMeL][dNMeL]P[dNMeL][dA][NMeL]P[dNMeL]L)) | BQL | BQL | BQL | not permeable
CC[C@@H](C)[C@H]1NC(=O)[C@H](CC(C)C)NC(=O)[C@H](CC(C)C)N(C)C(=O)[C@H]2CCCN2C(=O)[C@@H](CC(C)C)NC(=O)[C@@H]2CCCN2C(=O)[C@H](CC(C)C)N(C)C(=O)[C@@H](Cc2ccccc2)N(C)C(=O)[C@H](CC(C)C)N(C)C(=O)[C@H](CC(C)C)N(C)C1=O [Design D10.12, *LEU LEU DILE *LEU *LEU *DPHE *LEU PRO DLEU DPRO] (cyclo(L[dI][NMeL][NMeL][dNMeF][NMeL]P[dL][dP][NMeL])) | BQL | BQL | BQL | 
CCCC[C@H]1C(=O)N[C@@H]([C@@H](C)CC)C(=O)N2CCC[C@H]2C(=O)N2CCC[C@@H]2C(=O)N[C@H](CC(C)C)C(=O)N[C@@H]([C@@H](C)CC)C(=O)N2CCC[C@@H]2C(=O)N[C@H](Cc2ccccc2)C(=O)N[C@@H](C(C)C)C(=O)N(C)[C@H](CC(C)C)C(=O)N1C [Design D10.44, VAL *DLEU *MET ILE PRO DPRO DLEU ILE DPRO DPHE] (cyclo(IP[dP][dL]I[dP][dF]V[dNMeL][NMeNle])) | BQL | BQL | BQL | 
CC(C)C[C@@H]1NC(=O)[C@@H](Cc2ccccc2)NC(=O)[C@@H]2CCCN2C(=O)[C@H]2CCCN2C(=O)[C@@H]2CCCN2C(=O)[C@H](C)NC(=O)[C@H](Cc2ccccc2)N(C)C(=O)[C@H]2CCCN2C(=O)[C@@H](CC(C)C)NC(=O)[C@@H](C(C)C)NC1=O [Design D10.54, DVAL DLEU DPRO *PHE ALA PRO DPRO PRO DPHE LEU] (cyclo([dF]L[dV][dL][dP][NMeF]AP[dP]P)) | BQL | BQL | BQL | 
CC[C@H](C)[C@@H]1NC(=O)[C@H](Cc2ccccc2)N(C)C(=O)[C@H]2CCCN2C(=O)[C@@H](CC(C)C)N(C)C(=O)[C@@H](Cc2ccccc2)NC(=O)[C@H](C(C)C)NC(=O)[C@H](CC(C)C)NC(=O)[C@H]2CCCN2C(=O)[C@H](CC(C)C)NC(=O)[C@@H]2CCCN2C1=O [Design D10.50, LEU VAL DPHE *DLEU DPRO *PHE ILE PRO LEU DPRO] (cyclo(IPL[dP]LV[dF][dNMeL][dP][NMeF])) | 6.28E-07 | 8.97E-07 | 6.88E-07 | 
CC[C@H](C)[C@@H]1NC(=O)[C@H](CCSC)N(C)C(=O)[C@H]2CCCN2C(=O)[C@H](CC(C)C)NC(=O)[C@@H](Cc2ccccc2)NC(=O)[C@@H]2CCCN2C(=O)[C@H]2CCCN2C(=O)[C@H]([C@@H](C)CC)NC(=O)[C@@H](CC(C)C)N(C)C(=O)[C@H](CC(C)C)N(C)C1=O [Design D10.36, ILE *LEU *DLEU ILE DPRO PRO DPHE LEU DPRO *MET] (cyclo([dF]L[dP][NMeM]I[NMeL][dNMeL]I[dP]P)) | BQL | BQL | BQL | 
CC[C@@H](C)[C@H]1NC(=O)[C@@H](CC(C)C)NC(=O)[C@@H](CC(C)C)NC(=O)[C@@H](C)NC(=O)[C@@H](CC(C)C)NC(=O)[C@H]2CCCN2C(=O)[C@@H]2CCCN2C(=O)[C@H]2CCCN2C(=O)[C@@H](C)NC(=O)[C@@H](CC(C)C)N(C)C(=O)[C@H]2CCCN2C1=O [Design D11.19, DILE DPRO *DLEU DALA DPRO PRO DPRO DLEU DALA DLEU DLEU] (cyclo([dP][dL][dA][dL][dL][dI][dP][dNMeL][dA][dP]P)) | BQL | BQL | BQL | 
CC(C)C[C@@H]1NC(=O)[C@@H]2CCCN2C(=O)[C@@H](Cc2ccccc2)N(C)C(=O)[C@H](CC(C)C)N(C)C(=O)[C@H](CC(C)C)N(C)C(=O)[C@@H](CC(C)C)N(C)C(=O)[C@H](C)NC(=O)[C@H](C(C)C)NC(=O)CNC(=O)[C@H](Cc2ccccc2)NC1=O [Design D10.24, PHE GLY VAL ALA *DLEU *LEU *LEU *DPHE PRO LEU] (cyclo(A[dNMeL][NMeL][NMeL][dNMeF]PLFGV)) | BQL | BQL | BQL | 
CC(C)C[C@@H]1NC(=O)[C@@H]2CCCN2C(=O)[C@H]2CCCN2C(=O)CN(C)C(=O)[C@@H](Cc2ccccc2)N(C)C(=O)[C@@H](CC(C)C)NC(=O)[C@@H](CC(C)C)N(C)C(=O)[C@@H]2CCCN2C(=O)[C@H](CC(C)C)N(C)C(=O)[C@H](CC(C)C)N(C)C1=O [Design D10.22, PRO LEU *LEU *LEU PRO *DLEU DLEU *DPHE *GLY DPRO] (cyclo(L[NMeL][NMeL]P[dNMeL][dL][dNMeF][Sar][dP]P)) | BQL | BQL | BQL | not permeable
DPRO PRO *DLEU DALA PRO *DLEU ALA *GLY *DVAL DPHE [Design D10.7] | BQL | BQL | BQL | 
CC(C)[C@@H]1C(=O)N[C@@H](Cc2ccccc2)C(=O)N2CCC[C@H]2C(=O)N(C)[C@H](Cc2ccccc2)C(=O)N[C@H](C)C(=O)N2CCC[C@H]2C(=O)N1C (single isomer, unassigned) [Design D6.8.p2, *DPHE DALA PRO *DVAL PHE PRO] | 1.77e-06 cm/s | 1.92e-06 cm/s | 1.94e-06 cm/s | 
CCCC[C@@H]1NC(=O)[C@H](CC(C)C)NC(=O)[C@@H]2CCCN2C(=O)[C@H]2CCCN2C(=O)[C@@H](C)NC(=O)[C@H]2CCCN2C(=O)[C@@H](CC(C)C)NC(=O)[C@@H](C)N(C)C(=O)[C@H](CC(C)C)N(C)C(=O)[C@@H](C)N(C)C1=O [Design D10.40, MET *DALA *LEU *DALA DLEU DPRO DALA DPRO PRO LEU] (cyclo(L[Nle][dNMeA][NMeL][dNMeA][dL][dP][dA][dP]P)) | 7.09E-07 | 6.40E-07 | 6.95E-07 | 
CC(C)C[C@H]1C(=O)N2CCC[C@@H]2C(=O)N[C@@H](Cc2ccccc2)C(=O)N2CCC[C@H]2C(=O)N[C@H](C(C)C)C(=O)N[C@H](Cc2ccccc2)C(=O)N1C (single isomer, unassigned) [Design D6.9.p2, DVAL DPHE *LEU DPRO PHE PRO] | 6.77e-06 cm/s | 6.03e-06 cm/s | 8.48e-06 cm/s | 
CC(C)C[C@@H]1NC(=O)[C@H]2CCCN2C(=O)[C@@H]2CCCN2C(=O)[C@H](C)N(C)C(=O)[C@@H](C(C)C)NC(=O)[C@H](Cc2ccccc2)NC(=O)[C@H]2CCCN2C(=O)[C@@H]2CCCN2C(=O)[C@@H](CC(C)C)NC1=O [Design D9.20, DLEU PRO DPRO PHE DVAL *ALA PRO DPRO LEU] (cyclo(F[dV][NMeA]P[dP]L[dL]P[dP])) | BQL | BQL | BQL | 
CC(C)[C@H]1NC(=O)[C@H](C)NC(=O)[C@@H]2CCCN2C(=O)[C@H]2CCCN2C(=O)[C@@H](C(C)C)NC(=O)[C@H]2CCCN2C(=O)[C@@H](C)NC(=O)[C@@H](Cc2ccccc2)N(C)C(=O)[C@H](Cc2ccccc2)NC1=O [Design D9.35, DPRO DVAL DPRO PRO ALA DVAL PHE *DPHE DALA] (cyclo(A[dV]F[dNMeF][dA][dP][dV][dP]P)) | BQL | BQL | BQL | 
CC(C)C[C@@H]1NC(=O)[C@@H](C(C)C)NC(=O)[C@H](CC(C)C)N(C)C(=O)[C@H]2CCCN2C(=O)[C@@H](C(C)C)NC(=O)[C@H]2CCCN2C(=O)[C@@H](C(C)C)NC(=O)[C@@H](Cc2ccccc2)N(C)C(=O)[C@H](CC(C)C)N(C)C1=O (single isomer, unassigned) [Design D9.8.p2, *LEU DVAL LEU *LEU *DPHE DVAL DPRO DVAL DPRO] | 9.35E-07 | 1.16E-06 | 8.61E-07 | 
